Type in all cases: in vivo
Assay [1] relates to Abutilon theophrasti. In words: Pre-emergence herbicidal action against ABUTH. The note with it: visual score after 3 weeks vs untreated controls. The text has this: (§1) Seeds of monocotyledonous and dicotyledonous weed plants and crop plants are laid out in sandy loam soil in wood-fiber pots and covered with soil. The compounds of the invention, formulated in the form of wettable powders (WP) or as emulsion concentrates (EC), are then applied to the surface of the covering soil in the form of an aqueous suspension or emulsion at a water application rate equivalent to 600 to 800 l/ha, with addition of 0.2% wetting agent. After the treatment, the pots are placed in a greenhouse and kept under good growth conditions for the trial plants. The damage to the test plants is scored visually after a test period of 3 weeks by comparison with untreated controls (herbicidal activity in percent (%): 100% activity=the plants have died, 0% activity=like control plants). […] The tables below illustrate, in an illustrative manner, the post-emergence herbicidal action of the compounds of the invention, the herbicidal activity being stated in percent.

The test system of assay [2] is Alopecurus myosuroides. As to the kind of experiment: Pre-emergence herbicidal action against ALOMY. The note with it: visual score after 3 weeks vs untreated controls.
Text: as §1

The test system of assay [3] is Amaranthus retroflexus. In words: Pre-emergence herbicidal action against AMARE. The note with it: visual score after 3 weeks vs untreated controls.
Text: as §1

Assay [4] concerns Matricaria inodora. In words: Pre-emergence herbicidal action against MATIN. The note with it: visual score after 3 weeks vs untreated controls.
Text: as §1

The subject of the next assay is Digitaria sanguinalis. In words: Pre-emergence herbicidal action against DIGSA.
Text: as §1

The subject of assay [5] is Setaria viridis. In words: Pre-emergence herbicidal action against SETVI. The note with it: 80 g/ha.
Text: as §1

A further assay has as its system Veronica persica. As to the kind of experiment: Pre-emergence herbicidal action against VERPE.
Text: as §1

Assay [6] deals with Viola tricolor. As to the kind of experiment: Pre-emergence herbicidal action against VIOTR.
Text: as §1

Assay [7] concerns Alopecurus myosuroides. In words: Post-emergence herbicidal action against ALOMY. The note with it: 20 g/ha. As to the method:
(§2) Seeds of monocotyledonous and dicotyledonous weed and crop plants are laid out in sandy loam soil in wood-fiber pots, covered with soil and cultivated in a greenhouse under good growth conditions. 2 to 3 weeks after sowing, the test plants are treated at the one-leaf stage. The compounds of the invention, formulated in the form of wettable powders (WP) or as emulsion concentrates (EC), are then sprayed onto the green parts of the plants in the form of an aqueous suspension or emulsion at a water application rate equivalent to 600 to 800 l/ha, with addition of 0.2% wetting agent. After the test plants have been left to stand in the greenhouse under optimal growth conditions for about 3 weeks, the action of the preparations is assessed visually in comparison to untreated controls (herbicidal action in percent (%): 100% activity=the plants have died, 0% activity=like control plants). […] The tables below illustrate, in an illustrative manner, the post-emergence herbicidal action of the compounds of the invention, the herbicidal activity being stated in percent.

For the next assay, the system named is Avena fatua. As to the kind of experiment: Post-emergence herbicidal action against AVEFA. The note with it: 20 g/ha, visual assessment about 3 weeks after treatment. As to the method:
as §2

The test system of assay [8] is Echinochloa crus-galli. As to the kind of experiment: Post-emergence herbicidal action against ECHCG. The note with it: visual assessment about 3 weeks after treatment. As to the method: as §2
For assay [9], the system named is Matricaria inodora. As to the kind of experiment: Post-emergence herbicidal action against MATIN. The note with it: visual assessment about 3 weeks after treatment. As to the method: as §2
In a further assay the test system is Pharbitis purpurea. In words: Post-emergence herbicidal action against PHBPU. The note with it: 20 g/ha, visual assessment about 3 weeks after treatment. As to the method:
as §2

Assay [10] concerns Setaria viridis. As to the kind of experiment: Post-emergence herbicidal action against SETVI. The note with it: visual assessment about 3 weeks after treatment. As to the method: as §2
For assay [11], the system named is Viola tricolor. As to the kind of experiment: Post-emergence herbicidal action against VIOTR. The protocol: as §2
The subject of assay [12] is Echinochloa crus-galli. As to the kind of experiment: Pre-emergence herbicidal action against ECHCG. The note with it: 80 g/ha; visual score after 3 weeks vs untreated controls.
Text: as §1

Assay [13] relates to Abutilon theophrasti. As to the kind of experiment: Post-emergence herbicidal action against ABUTH. As to the method: as §2
For assay [14], the system named is Amaranthus retroflexus. In words: Post-emergence herbicidal action against AMARE. The note with it: visual assessment about 3 weeks after treatment. As to the method: as §2

Consider `CCN(CC)C(=O)c1c(C(F)(F)F)ccc(C(=O)Nc2nnnn2CC)c1C` [Example 2-31], for which the “Pre-emergence action against ABUTH” value in the assay on Abutilon theophrasti [1] (20 g/ha) and in the assay on Abutilon theophrasti [1] (80 g/ha) was 100% each time. Besides, the “Pre-emergence action against ALOMY” value with Alopecurus myosuroides [2] (80 g/ha) is listed as 80%. Moreover, the “Pre-emergence action against AMARE” value with Amaranthus retroflexus [3] (20 g/ha) and with Amaranthus retroflexus [3] (80 g/ha) was 100% each time. The “Pre-emergence action against MATIN” value was 90% with Matricaria inodora [4] (20 g/ha) and 100% in the assay with Matricaria inodora [4] (80 g/ha). Further, the “Pre-emergence action against DIGSA” value in the assay with Digitaria sanguinalis (20 g/ha) worked out at 90%; in the assay with Digitaria sanguinalis (80 g/ha), 100%. Also, in the assay with Setaria viridis [5], the “Pre-emergence action against SETVI” value was found to be 90%. In the assay with Veronica persica (80 g/ha), the “Pre-emergence action against VERPE” value came to 80%. The “Pre-emergence action against VIOTR” value with Viola tricolor [6] (20 g/ha) and in the assay with Viola tricolor [6] (80 g/ha) was 100% in each case. Moreover, the “Post-emergence action against ALOMY” value in the assay with Alopecurus myosuroides [7] was found to be 80%. Also, the “Post-emergence action against AVEFA in %” value with Avena fatua is recorded as 80%. The results for the “Post-emergence action against ECHCG in %” value in the assay with Echinochloa crus-galli [8] (5 g/ha) and in the assay on Echinochloa crus-galli [8] (20 g/ha) were 80% and 90%, respectively. The “Post-emergence action against MATIN in %” value in the assay on Matricaria inodora [9] (5 g/ha) is 80%; with Matricaria inodora [9] (20 g/ha), 90%. Besides, the “Post-emergence action against PHBPU in %” value with Pharbitis purpurea was 90%. The entries for the “Post-emergence action against SETVI in %” value in the assay on Setaria viridis [10] (5 g/ha) and with Setaria viridis [10] (20 g/ha) were 80% and 90%, respectively. Besides, the “Post-emergence action against VIOTR in %” value with Viola tricolor [11] (5 g/ha) and in the assay with Viola tricolor [11] (20 g/ha) was 100% throughout.
As to `CCN(C(=O)c1c(C(F)(F)F)ccc(C(=O)Nc2nnnn2CC)c1Cl)C1CC1` [Example 2-136], the “Pre-emergence action against ABUTH” value in the assay with Abutilon theophrasti [1] (20 g/ha) and in the assay on Abutilon theophrasti [1] (80 g/ha) was 100% throughout. In addition, the “Pre-emergence action against ALOMY” value turned out to be 90% in the assay with Alopecurus myosuroides [2] (20 g/ha) and 100% with Alopecurus myosuroides [2] (80 g/ha). Moreover, the “Pre-emergence action against AMARE” value in the assay with Amaranthus retroflexus [3] (20 g/ha) and with Amaranthus retroflexus [3] (80 g/ha) was 100% throughout. In the assay with Echinochloa crus-galli [12], the “Pre-emergence action against ECHCG” value is recorded as 90%. The “Pre-emergence action against MATIN” value in the assay on Matricaria inodora [4] (20 g/ha) stood at 80%; with Matricaria inodora [4] (80 g/ha), 100%. Also, the “Pre-emergence action against DIGSA” value was 90% with Digitaria sanguinalis (20 g/ha) and 100% in the assay with Digitaria sanguinalis (80 g/ha). The “Pre-emergence action against SETVI” value in the assay with Setaria viridis [5] is 100%. Further, the “Pre-emergence action against VIOTR” value in the assay with Viola tricolor [6] (20 g/ha) and in the assay with Viola tricolor [6] (80 g/ha) was 100% each time. Also, the “Post-emergence action against ABUTH” value is given as 80% with Abutilon theophrasti [13] (5 g/ha) and 90% in the assay on Abutilon theophrasti [13] (20 g/ha). In addition, the “Post-emergence action against ALOMY” value with Alopecurus myosuroides [7] came out at 90%. Also, the “Post-emergence action against AMARE in %” value in the assay with Amaranthus retroflexus [14] (5 g/ha) and in the assay on Amaranthus retroflexus [14] (20 g/ha) was 100% each time. The “Post-emergence action against AVEFA in %” value in the assay on Avena fatua is recorded as 80%. In the assay on Echinochloa crus-galli [8] (20 g/ha), the “Post-emergence action against ECHCG in %” value was determined as 90%. For the same molecule, the “Post-emergence action against MATIN in %” value in the assay with Matricaria inodora [9] (20 g/ha) was 80%. In addition, the “Post-emergence action against VIOTR in %” value in the assay with Viola tricolor [11] (5 g/ha) and in the assay with Viola tricolor [11] (20 g/ha) was 100% throughout.
As for `CCOC(=O)[C@@H]1CCCN1C(=O)c1c(C(F)(F)F)ccc(C(=O)Nc2nnnn2CC)c1Cl` [Example 2-398], the “Pre-emergence action against ABUTH” value in the assay with Abutilon theophrasti [1] (20 g/ha) is recorded as 80%; with Abutilon theophrasti [1] (80 g/ha) it was 100%. Moreover, the “Pre-emergence action against AMARE” value in the assay on Amaranthus retroflexus [3] (80 g/ha) is 100%. The “Pre-emergence action against MATIN” value in the assay on Matricaria inodora [4] (80 g/ha) amounted to 100%. Moreover, in the assay with Digitaria sanguinalis (80 g/ha), the “Pre-emergence action against DIGSA” value is listed as 90%. In addition, the “Pre-emergence action against SETVI” value with Setaria viridis [5] amounted to 80%. Further, the “Pre-emergence action against VIOTR” value in the assay with Viola tricolor [6] (80 g/ha) is recorded as 100%.
In the case of `CCOC(=O)[C@@H]1CCCN1C(=O)c1c(C(F)(F)F)ccc(C(=O)Nc2nnnn2CC)c1C` [Example 2-399], the “Pre-emergence action against ABUTH” value in the assay with Abutilon theophrasti [1] (20 g/ha) and in the assay on Abutilon theophrasti [1] (80 g/ha) was 100% throughout. Besides, the “Pre-emergence action against AMARE” value amounted to 90% in the assay with Amaranthus retroflexus [3] (20 g/ha) and 100% in the assay on Amaranthus retroflexus [3] (80 g/ha). Moreover, in the assay with Echinochloa crus-galli [12], the “Pre-emergence action against ECHCG” value was determined as 90%. For the same molecule, the “Pre-emergence action against MATIN” value with Matricaria inodora [4] (20 g/ha) is recorded as 90%; in the assay with Matricaria inodora [4] (80 g/ha) it was 100%. Further, the “Pre-emergence action against DIGSA” value in the assay on Digitaria sanguinalis (20 g/ha) amounted to 90%; in the assay on Digitaria sanguinalis (80 g/ha), 100%. Also, the “Pre-emergence action against SETVI” value in the assay on Setaria viridis [5] is given as 100%. The “Pre-emergence action against VERPE” value in the assay on Veronica persica (20 g/ha) and in the assay on Veronica persica (80 g/ha) was 100% in each case. For the same molecule, the “Pre-emergence action against VIOTR” value worked out at 90% in the assay on Viola tricolor [6] (20 g/ha) and 100% in the assay with Viola tricolor [6] (80 g/ha). In the assay on Amaranthus retroflexus [14] (20 g/ha), the “Post-emergence action against AMARE in %” value stood at 80%. In addition, the “Post-emergence action against ECHCG in %” value in the assay on Echinochloa crus-galli [8] (20 g/ha) stood at 80%. Also, in the assay with Matricaria inodora [9] (20 g/ha), the “Post-emergence action against MATIN in %” value is recorded as 80%. Also, in the assay on Pharbitis purpurea, the “Post-emergence action against PHBPU in %” value is given as 90%.

(Values after patent US12599136B2, “Substituted isophthalic acid diamides and their use as herbicides” (Bayer Aktiengesellschaft, priority 2020, dated 2026).)
